According to US20240262804A1, “NITROGEN-CONTAINING HETEROCYCLIC KETONES, PREPARATION METHODS AND MEDICINAL USES THEREOF” (Hansoh Bio LLC, priority 2021, published 2024):

Key:
bovine cardiac myosin = bovine cardiac myosin (Bos taurus (Bovine), UniProt Q9BE39); experiment: Myosin inhibitory potency: PK/LDH-coupled ATPase assay on bovine skinned cardiac myofibrils; type: biochemical; details: pCa=6.25, 50 μM ATP, 25° C., read-out: myosin inhibition activity IC50
Outline: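 Bovine left-ventricle skinned myofibrils (1 mg/mL) in PM12 buffer pH 6.8 at pCa 6.25, 50 μM ATP, PK/LDH-coupled NADH depletion read at 340 nm, 25 °C.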

[1] = Pharmacokinetic profiles in male SD rats (IV and PO); type: in vivo, rat; details: IV 1 mg/kg, PO 5 mg/kg, route for this parameter not given; for clearance / half-life / Vd: rat, plasma; for Vd: read-out: VSS
Procedure: Pharmacokinetic profile of compounds were determined by IV (1 mg/Kg) and PO (5 mg/Kg) administrations in male SD rats. Compounds were administrated with free base and formulated in 5% DMAC+25% PEG-400+70%(30% 2-HP-β-CD in water). The compounds were dosed at 1 mg/kg for intravenous and 5 mg/kg oral administration. Blood samples were collected at 0, 0.083, 0.25, 0.5, 1, 2, 4, 8 and 24 hours post dose, serial bleeding for plasma for the IV group. Blood samples were collected at 0, 0.25, 0.5, 1, 2, 4, 6, 8 and 24 hours post dose, serial bleeding for the PO group. Approximately 150 μL whole blood/time point were collected in K2EDTA tube via jugular vein. Blood sample was put on ice and centrifuged at 2000 g for 5 min to obtain plasma sample within 15 minutes. PK parameters were estimated by non-compartmental model using WinNonlin 8.2.

[2] = system: isolated rat ventricular myocytes; experiment: Cardiomyocyte contractility assay (sarcomere shortening, IonOptix); type: cell-based; details: for Ratio of % FS 5 uM/15 uM: 5 uM versus 15 uM; for % FS (% reduction from baseline) at 5 uM / % FS (% reduction from baseline) at 15uM: rat ventricular myocytes, paced at 1 Hz
Procedure: The effects of compounds on sarcomere shortening in isolated rat ventricular myocytes were assessed using the IonOptix apparatus.
Myocytes were placed in a chamber mounted on the stage of an inverted microscope and continuously superfused with oxygenated Tyrode solution containing (in millimolar): 121 NaCl, 5 KCl, 2.8 NaCH3CO2, MgCl2·6H2O, Glucose, NaHCO3, Na2HPO4. 7H2O, and 1.5 mM CaCl2). Solution was preheated at 36±1° C. and electrical-field stimulated at 1 Hz by 2 platinum electrodes connected to a Myopacer field stimulator (IonOptix Corporation) with 4 ms square-wave bipolar pulses (10 V). Cells were illuminated by the microscope light. The cell image was collected by a x40 ultraviolet epifluorescence objective, diverted to the microscope side port, where the cell image was recorded by a charge coupled device (CCD) camera (MyoCam, IonOptix Corporation), converting optical brightness (pixels) into electrical signals (voltage). The MyoCam configuration allowed acquisition of up to 240 images per second (240 Hz frame rate). Contractile properties of the myocytes were analyzed in real time by a video detector and a personal computer-based data acquisition system (Ionwizard 6.0, IonOptix Corporation). Only myocytes with clear striations, quiescent prior to pacing with a resting sarcomere length greater or equal to 1.75 μm were used, since this is presumed to represent the lower limit for healthy cells.
Sarcomere shortening was monitored in control solution (predrug) until stable recordings were obtained (baseline period). To determine the response to compounds, myocytes were first superfused for 60 seconds with Tyrode's buffer followed by at least a 5 minute—(or until steady state was reached, up to 10 min) superfusion of compound. Each cell was subjected to 2 concentrations (5 and 15 uM or 5 and 10 uM) of test compounds. For some cells, a washout period was performed after the last concentration. Duration of the washout period was variable, resulting in variability in the washout data. In separate cells, a single concentration of isoproterenol (100 nM) was applied. Data were continuously recorded using the IonOptix software. Contractility data were analyzed using Ionwizard software (IonOptix). For each cell, 10-15 contractility transients at baseline and after treatment were averaged and compared.

bovine cardiac myosin, sequence (Q9BE39 whole entry): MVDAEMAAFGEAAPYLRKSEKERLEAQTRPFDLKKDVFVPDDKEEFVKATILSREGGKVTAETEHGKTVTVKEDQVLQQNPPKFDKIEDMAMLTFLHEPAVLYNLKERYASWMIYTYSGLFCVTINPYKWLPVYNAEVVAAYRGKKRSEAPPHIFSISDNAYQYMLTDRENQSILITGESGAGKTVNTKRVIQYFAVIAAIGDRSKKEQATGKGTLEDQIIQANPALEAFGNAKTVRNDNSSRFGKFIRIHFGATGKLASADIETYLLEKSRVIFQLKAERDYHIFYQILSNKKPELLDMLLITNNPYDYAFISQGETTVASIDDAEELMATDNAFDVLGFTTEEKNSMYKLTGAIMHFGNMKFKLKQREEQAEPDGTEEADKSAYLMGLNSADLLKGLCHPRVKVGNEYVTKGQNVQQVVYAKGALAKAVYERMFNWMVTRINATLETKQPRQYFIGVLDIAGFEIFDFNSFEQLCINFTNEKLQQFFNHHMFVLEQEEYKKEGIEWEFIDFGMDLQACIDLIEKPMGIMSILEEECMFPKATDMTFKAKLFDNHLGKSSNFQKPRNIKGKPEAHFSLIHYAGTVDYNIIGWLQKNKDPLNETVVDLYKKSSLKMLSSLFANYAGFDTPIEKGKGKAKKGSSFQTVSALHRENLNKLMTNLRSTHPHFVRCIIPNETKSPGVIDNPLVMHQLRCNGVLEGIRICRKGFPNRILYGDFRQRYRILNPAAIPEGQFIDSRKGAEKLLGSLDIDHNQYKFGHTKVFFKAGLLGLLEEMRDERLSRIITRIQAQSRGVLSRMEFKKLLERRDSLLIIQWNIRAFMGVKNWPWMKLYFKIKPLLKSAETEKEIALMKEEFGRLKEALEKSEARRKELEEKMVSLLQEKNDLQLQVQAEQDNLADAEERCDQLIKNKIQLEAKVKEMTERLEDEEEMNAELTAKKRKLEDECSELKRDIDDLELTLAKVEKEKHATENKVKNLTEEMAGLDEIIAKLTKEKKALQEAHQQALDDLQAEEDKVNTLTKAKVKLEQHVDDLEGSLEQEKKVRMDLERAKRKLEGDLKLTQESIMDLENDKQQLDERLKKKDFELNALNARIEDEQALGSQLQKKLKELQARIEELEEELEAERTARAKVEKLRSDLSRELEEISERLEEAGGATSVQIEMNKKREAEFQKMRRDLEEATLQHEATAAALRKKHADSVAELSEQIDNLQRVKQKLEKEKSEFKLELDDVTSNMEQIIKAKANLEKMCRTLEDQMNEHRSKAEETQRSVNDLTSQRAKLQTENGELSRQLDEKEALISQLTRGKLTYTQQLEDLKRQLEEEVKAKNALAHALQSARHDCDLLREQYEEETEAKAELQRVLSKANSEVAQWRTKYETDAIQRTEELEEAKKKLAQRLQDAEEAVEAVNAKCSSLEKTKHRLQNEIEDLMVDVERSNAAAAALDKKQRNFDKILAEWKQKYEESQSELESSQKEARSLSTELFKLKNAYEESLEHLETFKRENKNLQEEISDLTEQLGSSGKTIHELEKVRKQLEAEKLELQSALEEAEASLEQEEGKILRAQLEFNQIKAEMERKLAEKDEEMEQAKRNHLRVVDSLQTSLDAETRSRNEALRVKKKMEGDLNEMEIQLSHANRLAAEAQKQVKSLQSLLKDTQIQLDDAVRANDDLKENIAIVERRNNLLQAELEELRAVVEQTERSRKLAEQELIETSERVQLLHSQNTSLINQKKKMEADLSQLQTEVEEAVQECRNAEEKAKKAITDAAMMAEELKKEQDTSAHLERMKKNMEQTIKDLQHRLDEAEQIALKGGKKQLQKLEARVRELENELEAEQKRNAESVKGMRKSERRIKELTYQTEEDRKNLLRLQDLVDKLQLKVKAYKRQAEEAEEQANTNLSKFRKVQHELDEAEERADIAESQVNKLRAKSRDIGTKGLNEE
bovine cardiac myosin, sequence (P85100 whole entry partner): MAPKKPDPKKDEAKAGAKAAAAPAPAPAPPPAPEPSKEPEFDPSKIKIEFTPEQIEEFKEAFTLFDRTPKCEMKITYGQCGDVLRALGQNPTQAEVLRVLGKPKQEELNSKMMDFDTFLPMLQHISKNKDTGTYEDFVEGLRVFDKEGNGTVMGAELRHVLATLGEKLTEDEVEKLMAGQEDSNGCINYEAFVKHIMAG
bovine cardiac myosin, sequence (Q3SZE5 whole entry partner): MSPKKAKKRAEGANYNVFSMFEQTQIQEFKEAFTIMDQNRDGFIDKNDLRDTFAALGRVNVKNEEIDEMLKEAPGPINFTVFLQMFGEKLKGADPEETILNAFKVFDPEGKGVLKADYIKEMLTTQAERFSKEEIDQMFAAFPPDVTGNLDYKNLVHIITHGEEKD

| IC50 (bovine cardiac myosin) [nM] | SMILES | also measured |
| --- | --- | --- |
| 6890 | C[C@H](Nc1nc(=O)n(C2CCOCC2)c(=O)[nH]1)c1cccc(C(F)(F)F)c1 [Example 252] | DNAUC [1]: 3959.8 ng·h/mL; clearance [1]: 3.5 mL/min/kg; half-life [1]: 265 min; Vd [1]: 0.94 L/kg |
| 200 | C[C@H](Nc1nc(=O)n(C2CCOCC2)c(=O)[nH]1)c1ccc(Cl)c(Cl)c1 [Example 165] | DNAUC [1]: 11463.4 ng·h/mL; clearance [1]: 1.67 mL/min/kg; half-life [1]: 275 min; Vd [1]: 0.46 L/kg |
|  | C[C@H](Nc1nc(=O)n(C2CCOCC2)c(=O)[nH]1)c1ccc(F)cc1Cl [Example 162] | Ratio of % FS 5 uM/15 uM [2]: 1.9; % FS (% reduction from baseline) at 5 uM [2]: 60.8 +/− 12.7%; % FS (% reduction from baseline) at 15uM [2]: 32.2 +/− 5.3%; DNAUC [1]: 4195.1 ng·h/mL; clearance [1]: 4.17 mL/min/kg; half-life [1]: 224 min; Vd [1]: 0.97 L/kg |
| 470 | C[C@H](Nc1nc(=O)n(C2CCOCC2)c(=O)[nH]1)c1cc(F)cc(Cl)c1 [Example 172] | Ratio of % FS 5 uM/15 uM [2]: 2.2; % FS (% reduction from baseline) at 5 uM [2]: 63.6 +/− 3.3%; % FS (% reduction from baseline) at 15uM [2]: 28.9 +/− 8.7%; DNAUC [1]: 7631.0 ng·h/mL; clearance [1]: 2.5 mL/min/kg; half-life [1]: 237 min; Vd [1]: 0.57 L/kg |
| 3380 | Cc1nccn1-c1cccc(C(C)Nc2nc(=O)n(C3CCOCC3)c(=O)[nH]2)c1 (stereo not drawn) [Example 219] |  |
| 1370 | C[C@H](Nc1nc(=O)n(C2CCOCC2)c(=O)[nH]1)c1cccc(Cl)c1F [Example 11] |  |
| 1590 | Cc1cc([C@H](C)Nc2nc(=O)n([C@H]3CCOC[C@H]3F)c(=O)[nH]2)ccc1F [Example 297] |  |
| 1950 | C[C@H](Nc1nc(=O)n(C2CCOCC2)c(=O)[nH]1)c1cccc(C2CCNCC2)c1 [Example 209] |  |
| 2140 | C[C@H](Nc1nc(=O)n(C2CCOCC2)c(=O)[nH]1)c1c(F)cccc1F [Example 12] |  |
| 4850 | C[C@H](Nc1nc(=O)n(C2CCOCC2)c(=O)[nH]1)c1cccc(-n2cncn2)c1 [Example 201] |  |
| 1600 | C[C@H](Nc1nc(=O)n(C2CCOCC2)c(=O)[nH]1)c1ccc(C(C)(C)C)cc1 [Example 160] |  |
| 6140 | CC(n1c(=O)nc(N[C@@H](C)C2CCCCC2)[nH]c1=O)C(F)(F)F (stereo partly drawn) [Example 52] |  |
| 3340 | Cc1cccc(C(C)Nc2nc(=O)n(C3CCNCC3)c(=O)[nH]2)c1 (stereo not drawn) [Example 187] |  |
| 7400 | C[C@H](Nc1nc(=O)n(-c2ccccn2)c(=O)[nH]1)C1CCCCC1 [Example 57] |  |
| 4980 | CC(Nc1nc(=O)n(C2CCOCC2)c(=O)[nH]1)c1cccc(C2CC2)c1 (stereo not drawn) [Example 136] |  |
| 4580 | CC(Nc1nc(=O)n(C2CCOCC2)c(=O)[nH]1)C1CCCCCC1 (stereo not drawn) [Example 109] |  |
| 1210 | Cc1noc(C)c1-c1cccc([C@H](C)Nc2nc(=O)n(C3CCOCC3)c(=O)[nH]2)c1 [Example 198] |  |
| 880 | C[C@H](Nc1nc(=O)n(C2CCOCC2)c(=O)[nH]1)c1cccc(C2CCCCC2)c1 [Example 215] |  |
| 1490 | Cc1cc(C)cc([C@H](C)Nc2nc(=O)n(C3CCOCC3)c(=O)[nH]2)c1 [Example 56] |  |
| 2260 | C[C@H](Nc1nc(=O)n([C@H]2CCOC[C@H]2F)c(=O)[nH]1)c1ccc(F)cc1F [Example 281] |  |
| 1030 | C[C@@H](Nc1nc(=O)n(C2CCOCC2)c(=O)[nH]1)c1ccc(C(F)(F)F)cc1 [Example 333] |  |
| 3400 | C[C@H](Nc1nc(=O)n(C2CCOCC2)c(=O)[nH]1)c1cccc(N2CC(C)(C)C2)c1 [Example 214] |  |
| 1500 | CC(O)c1cccc([C@H](C)Nc2nc(=O)n(C3CCOCC3)c(=O)[nH]2)c1 (stereo partly drawn) [Example 248] |  |
| 1450 | C[C@H](Nc1nc(=O)n(C2CCOCC2)c(=O)[nH]1)c1ccc(C#N)cc1 [Example 169] |  |
| 1140 | CC(Nc1nc(=O)n(C2CCOCC2)c(=O)[nH]1)c1ccc2c(c1)OC(F)(F)O2 (stereo not drawn) [Example 148] |  |
| 7080 | CC(C)C(=O)N1CCC(n2c(=O)nc(N[C@@H](C)C3CCCCC3)[nH]c2=O)CC1 [Example 234] |  |
| 7410 | C[C@H](Nc1nc(=O)n(C2CCCCC2)c(=O)[nH]1)C1CCCCC1 [Example 60] |  |

| IC50 (bovine cardiac myosin) [nM] | SMILES | also measured |
| --- | --- | --- |
| 1230 | Cc1cccc([C@H](C)Nc2nc(=O)n([C@H]3CCOC[C@H]3F)c(=O)[nH]2)c1 [Example 316] |  |
| 2960 | CC(C)n1c(=O)nc(N[C@H](c2ccc(F)cc2F)C(F)F)[nH]c1=O [Example 262] |  |
| 2420 | COC(=O)c1ccc([C@H](C)Nc2nc(=O)n(C3CCOCC3)c(=O)[nH]2)cc1 [Example 247] |  |
| 3840 | Cc1cn(-c2cccc([C@H](C)Nc3nc(=O)n(C4CCOCC4)c(=O)[nH]3)c2)cn1 [Example 205] |  |
| 6790 | C=Cc1ccc(C(C)Nc2nc(=O)n(C3CCOCC3)c(=O)[nH]2)cc1 (stereo not drawn) [Example 141] |  |
| 1290 | Cc1cccc([C@H](C)Nc2nc(=O)n(C3CCN(C(C)C)CC3)c(=O)[nH]2)c1 [Example 37] |  |
| 17700 | C[C@H](Nc1nc(=O)n(C2CCOCC2)c(=O)[nH]1)c1cccc(N2CCN(C)CC2)c1 [Example 212] |  |
| 5810 | CC(Nc1nc(=O)n(C2CCNCC2)c(=O)[nH]1)c1cccc(C(F)(F)F)c1 (stereo not drawn) [Example 192] |  |
| 1320 | C[C@H](Nc1nc(=O)n(C2CCOCC2)c(=O)[nH]1)c1cccc(-c2ccccc2)c1 [Example 220] |  |
| 230 | CC(Nc1nc(=O)n(C2CCOCC2)c(=O)[nH]1)c1ccccc1C(F)(F)F (stereo not drawn) [Example 129] |  |
| 910 | CCC(Nc1nc(=O)n(C2CCOCC2)c(=O)[nH]1)c1cccc(C)c1 (stereo not drawn) [Example 292] |  |
| 1770 | COC[C@H](Nc1nc(=O)n(C2CCOCC2)c(=O)[nH]1)c1ccc(F)cc1F [Example 269] |  |
| 7640 | O=c1nc(NC(c2ccccc2)C(F)F)[nH]c(=O)n1C1CCOCC1 (stereo not drawn) [Example 143] |  |
| 240 | Cc1cccc(C(C)Nc2nc(=O)n(C3CCOCC3)c(=O)[nH]2)c1 (stereo not drawn) [Example 133] |  |
| 200 | CC(=O)N1CC(c2cccc([C@@H](Nc3nc(=O)n(C4CCOCC4)c(=O)[nH]3)C(F)F)c2)C1 [Example 260] |  |
| 4890 | C[C@H](Nc1nc(=O)n(C2CCCC2)c(=O)[nH]1)C1CCCCC1 [Example 78] |  |
| 720 | Cc1cccc([C@@H](Nc2nc(=O)n(C3CCOCC3)c(=O)[nH]2)C(F)(F)F)c1 [Example 279] |  |
| 850 | CC(C)c1ccc([C@H](C)Nc2nc(=O)n(C3CCOCC3)c(=O)[nH]2)cc1 [Example 328] |  |
| 2760 | C[C@H](Nc1nc(=O)n([C@@H](C)C(F)(F)F)c(=O)[nH]1)c1ccc(OC(F)(F)F)cc1 [Example 175] |  |
| 1660 | C[C@H](Nc1nc(=O)n(C2CCNCC2)c(=O)[nH]1)C1CCCCC1 [Example 235] |  |
| 1750 | CC(C)n1c(=O)nc(N[C@@H](C)c2ccc(OC(F)(F)F)cc2)[nH]c1=O [Example 177] |  |
| 8640 | C[C@H](Nc1nc(=O)n(C2(C)CCC2)c(=O)[nH]1)C1CCCCC1 [Example 89] |  |
| 1110 | C[C@H](Nc1nc(=O)n(C2CCOCC2)c(=O)[nH]1)c1cccc(C2=CCCCC2)c1 [Example 331] |  |
| 1130 | COc1ccc([C@H](C)Nc2nc(=O)n(C3CCOCC3)c(=O)[nH]2)cc1 [Example 48] |  |
| 2810 | CC(C)n1c(=O)nc(N[C@@H](C)c2cccc(C3CCNCC3)c2)[nH]c1=O [Example 293] |  |
| 2670 | C[C@H](Nc1nc(=O)n(C2CCOCC2)c(=O)[nH]1)c1cc(C(F)(F)F)cc(C(F)(F)F)c1 [Example 196] |  |

| SMILES | IC50 (bovine cardiac myosin) [nM] | also measured |
| --- | --- | --- |
| Cc1ccc(F)c([C@H](C)Nc2nc(=O)n([C@@H](C3CC3)C(F)(F)F)c(=O)[nH]2)c1 [Example 312] | 1440 |  |
